# Source: patent publication US20250304620A1, “ANTIMICROBIAL PEPTIDE AND APPLICATION THEREOF” (priority 2023, published 2025)
# Marks after values point to notes of the source that are not given here. Non-standard residues stand in square brackets, D forms with d. Residues, ends and D or L forms follow the SMILES beside them. dPhe(3,4-F2) = N[C@H](Cc1ccc(F)c(F)c1)C(=O)O
# Tests used:
# [1] = tested on: Serratia marcescens ATCC 29021; type: cell-based
# Method in brief: (§1)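 Broth microdilution (CLSI), twofold steps, MIC endpoint, 5× in parallel.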
# [2] = tested on: Corynebacterium ATCC 7715; type: cell-based
# Method in brief: as §1
# [3] = tested on: Escherichia coli ATCC 25922; type: cell-based
# Method in brief: as §1
# [4] = tested on: Salmonella typhimurium ATCC 14028; type: cell-based
# Method in brief: as §1
# [5] = tested on: Klebsiella pneumoniae ATCC 700603; type: cell-based
# Method in brief: as §1
# [6] = tested on: Candida albicans ATCC MYA-2876; type: cell-based
# Method in brief: as §1
# Enterococcus ATCC 29212 = type: cell-based
# Method in brief: as §1
# [7] = tested on: Pseudomonas aeruginosa ATCC 27853; type: cell-based
# Method in brief: as §1
# Candida krusei ATCC 6258 = type: cell-based
# Method in brief: as §1
# [8] = tested on: Candida glabrata ATCC 15126; type: cell-based
# Method in brief: as §1
# [9] = tested on: Trichophyton ATCC MYA-4438; type: cell-based
# Method in brief: as §1
# [10] = tested on: Candida tropicalis ATCC 750; type: cell-based
# Method in brief: as §1
# [11] = tested on: Staphylococcus aureus ATCC 25923; type: cell-based
# Method in brief: as §1
# [12] = tested on: Bacillus subtilis ATCC 6633; type: cell-based
# Method in brief: as §1
# Candida utilis ATCC 9950 = type: cell-based
# Method in brief: as §1
# [13] = tested on: Staphylococcus aureus (NRS 384); conditions: NRS 384, 3 h
# Description: Trypsin (250 U/mg, pH=8.0) and AMPs (LV-1 to LV-30) were mixed in a ratio of 1:10 (w/w) and added to a reaction buffer (0.2 M sodium phosphate, 1 mM CaCl2), pH 7.5), and then incubated at 37° C. for 3 h.
# [14] = tested on: Escherichia coli ATCC 25922; test: Oral formulations on mice with systemic bacterial infection; type: in vivo, ICR mice; conditions: three times a day for 7 days; for Number of mice that died on each day after infection: day 4 / Number of mice that died on each day after infection: day 5 / Number of mice that died on each day after infection: day 6 / Number of mice that died on each day after infection: day 7 / Number of mice that died on each day after infection: day 8 / Average survival times (Days): n = 10; for Average survival times (Days): observed for 14 d
# Method in brief: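 Survival time and deaths were logged over a 14 d observation after oral gavage dosing (by body weight, thrice daily, 7 days, starting right after infection). Model: mixed-sex ICR mice, n=10 per group, intraperitoneal injection of E. coli ATCC 25922 suspension (0.2 mL, 1×10^7 CFU/mL).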
# [15] = tested on: Pseudomonas aeruginosa ATCC 27853; test: Injectable formulations on mice infected with peritonitis; type: in vivo, ICR mice; conditions: twice a day for 3 days; for Number of mice that died on each day after infection: day 1 / Number of mice that died on each day after infection: day 2 / Number of mice that died on each day after infection: day 3 / Number of mice that died on each day after infection: day 4 / Number of mice that died on each day after infection: day 5 / Average survival times (Days): n = 10; for Average survival times (Days): observed for 14 d
# Method in brief: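 Survival readout: deaths and survival time tracked for 14 d. Treatment was tail-vein injection by body weight, twice a day for 3 consecutive days, starting right after intraperitoneal challenge with 0.2 mL of 1×10^9 CFU/mL P. aeruginosa ATCC 27853 in male and female ICR mice.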
# [16] = tested on: Staphylococcus aureus (NRS 384); test: microbe, parasite or virus in culture; type: cell-based; conditions: NRS 384
# Method in brief: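 MICs were read against S. aureus strain NRS 384 using twofold serial dilution by CLSI microdilution rules. Levofloxacin and Cbf-K16 were the reference controls, and the test was repeated 5 times in parallel.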
smiles,measurement,setting,value
"CC(=O)N[C@H](CCCNC(=N)N)C(=O)N[C@H](CCCCN)C(=O)N[C@H](CC(C)C)C(=O)N[C@H](CC(C)C)C(=O)N[C@H](Cc1ccc(F)c(F)c1)C(=O)N[C@H](CCCCN)C(=O)N[C@H](CC(C)C)C(=O)N[C@H](CCCCN)C(=O)N[C@H](Cc1ccc(F)c(F)c1)C(=O)N[C@H](CCCCN)C(=O)N[C@H](CCCNC(=N)N)C(N)=O [LV-6] (Ac-[dR][dK][dL][dL][dPhe(3,4-F2)][dK][dL][dK][dPhe(3,4-F2)][dK][dR]-NH2)",MIC Serratia marcescens ATCC 29021,[1],8 µg/mL
same,MIC Corynebacterium ATCC 7715,[2],2 µg/mL
same,MIC Escherichia coli ATCC 25922,[3],1 µg/mL
same,MIC Salmonella typhimurium ATCC 14028,[4],2 µg/mL
same,MIC Klebsiella pneumoniae ATCC 700603,[5],4 µg/mL
same,MIC Candida albicans ATCC MYA-2876,[6],16 µg/mL
same,MIC Enterococcus ATCC 29212,Enterococcus ATCC 29212,2 µg/mL
same,MIC Pseudomonas aeruginosa ATCC 27853,[7],1 µg/mL
same,MIC Candida krusei ATCC 6258,Candida krusei ATCC 6258,4 µg/mL
same,MIC Candida glabrata ATCC 15126,[8],8 µg/mL
same,MIC Trichophyton ATCC MYA-4438,[9],8 µg/mL
same,MIC Candida tropicalis ATCC 750,[10],4 µg/mL
same,MIC Staphylococcus aureus ATCC 25923,[11],1 µg/mL
same,MIC Bacillus subtilis ATCC 6633,[12],4 µg/mL
same,MIC Candida utilis ATCC 9950,Candida utilis ATCC 9950,8 µg/mL
same,Trypsin MIC,[13],1 µg/mL
same,Number of mice that died on each day after infection: day 4,[14]; 0.2 mg/kg gavage,1 Mouse
same,Number of mice that died on each day after infection: day 5,[14]; 0.2 mg/kg gavage,3 Mouse
same,Number of mice that died on each day after infection: day 6,[14]; 0.2 mg/kg gavage,2 Mouse
same,Number of mice that died on each day after infection: day 7,[14]; 0.2 mg/kg gavage,0 Mouse
same,Number of mice that died on each day after infection: day 8,[14]; 0.2 mg/kg gavage,0 Mouse
same,Average survival times (Days),[14]; 0.2 mg/kg gavage,8.7** Days
same,Number of mice that died on each day after infection: day 4,[14]; 1 mg/kg gavage,1 Mouse
same,Number of mice that died on each day after infection: day 5,[14]; 1 mg/kg gavage,0 Mouse
same,Number of mice that died on each day after infection: day 6,[14]; 1 mg/kg gavage,1 Mouse
same,Number of mice that died on each day after infection: day 7,[14]; 1 mg/kg gavage,1 Mouse
same,Number of mice that died on each day after infection: day 8,[14]; 1 mg/kg gavage,1 Mouse
same,Average survival times (Days),[14]; 1 mg/kg gavage,10.9*** Days
same,Number of mice that died on each day after infection: day 4,[14]; 5 mg/kg gavage,2 Mouse
same,Number of mice that died on each day after infection: day 5,[14]; 5 mg/kg gavage,1 Mouse
same,Number of mice that died on each day after infection: day 6,[14]; 5 mg/kg gavage,1 Mouse
same,Number of mice that died on each day after infection: day 7,[14]; 5 mg/kg gavage,0 Mouse
same,Number of mice that died on each day after infection: day 8,[14]; 5 mg/kg gavage,0 Mouse
same,Average survival times (Days),[14]; 5 mg/kg gavage,10.3*** Days
same,survival time of mice infected with Escherichia coli,"[14]; gavage, observed 14 d",superior to those of the Levofloxacin group
same,Number of mice that died on each day after infection: day 1,[15]; 0.2 mg/kg via tail vein,2 Mouse
same,Number of mice that died on each day after infection: day 2,[15]; 0.2 mg/kg via tail vein,2 Mouse
same,Number of mice that died on each day after infection: day 3,[15]; 0.2 mg/kg via tail vein,1 Mouse
same,Number of mice that died on each day after infection: day 4,[15]; 0.2 mg/kg via tail vein,0 Mouse
same,Number of mice that died on each day after infection: day 5,[15]; 0.2 mg/kg via tail vein,0 Mouse
same,Average survival times (Days),[15]; 0.2 mg/kg via tail vein,7.9** Days
same,Number of mice that died on each day after infection: day 1,[15]; 1 mg/kg via tail vein,1 Mouse
same,Number of mice that died on each day after infection: day 2,[15]; 1 mg/kg via tail vein,1 Mouse
same,Number of mice that died on each day after infection: day 3,[15]; 1 mg/kg via tail vein,0 Mouse
same,Number of mice that died on each day after infection: day 4,[15]; 1 mg/kg via tail vein,1 Mouse
same,Number of mice that died on each day after infection: day 5,[15]; 1 mg/kg via tail vein,0 Mouse
same,Average survival times (Days),[15]; 1 mg/kg via tail vein,10.5**** Days
same,Number of mice that died on each day after infection: day 1,[15]; 5 mg/kg via tail vein,1 Mouse
same,Number of mice that died on each day after infection: day 2,[15]; 5 mg/kg via tail vein,2 Mouse
same,Number of mice that died on each day after infection: day 3,[15]; 5 mg/kg via tail vein,1 Mouse
same,Number of mice that died on each day after infection: day 4,[15]; 5 mg/kg via tail vein,0 Mouse
same,Number of mice that died on each day after infection: day 5,[15]; 5 mg/kg via tail vein,0 Mouse
same,Average survival times (Days),[15]; 5 mg/kg via tail vein,9.2*** Days
same,survival time of mice infected with Pseudomonas aeruginosa,"[15]; tail vein, observed 14 d",superior to those of the Levofloxacin group
same,MIC against Staphylococcus aureus (NRS 384),[16],1 µg/mL
